Laboratory results reported in ChEMBL document CHEMBL4739717, “Methods of treating cartilage disorders through inhibition of clk and dyrk” (2020).

Tests used:
[1] = Induction of chondrogenesis in human MSC assessed as incubated for 6 days by rhodamine B and Nile red staining based imaging analysis; type: functional; settings: bmmsc
[2] = Induction of chondrogenesis in human MSC assessed as maximum activity at 100 nM incubated for 6 days by rhodamine B and Nile red staining based imaging analysis relative to control; type: functional; settings: BMMSC, 144 h, time 6 day
[3] = biological target: Dual specificity tyrosine-phosphorylation-regulated kinase 1A (Homo sapiens, UniProt Q13627); test: Inhibition of recombinant DYRK1A (unknown origin) using Ser/Thr 18 peptide as substrate incubated for 1 hr in presence of ATP by FRET assay
[4] = Effect on Wnt signaling pathway in human SW480 cells harbouring TCF/LEF luciferase reporter gene and SP5-Luc reporter gene incubated for 36 to 48 hrs by luminescence assay; type: cell-based

| EC50 [1] [nM] | EC50 [3] [nM] | EC50 [4] [nM] | SMILES | Emax at 0.1 µM [2] [%] |
| --- | --- | --- | --- | --- |
| 30 | 11 | 21 | CN(C)Cc1cncc(-c2cnc3[nH]nc(-c4nc5c(-c6cc(F)cc(N7CCOCC7)c6)cncc5[nH]4)c3c2)c1 | 114 |
| 100 | 60 | 57 | CC(C)CC(=O)Nc1cncc(-c2ccc3[nH]nc(-c4nc5c(-c6ccc(F)cc6)cncc5[nH]4)c3c2)c1 | 125 |
| 100 | 6 | 8.8 | Nc1cncc(-c2ccc3[nH]nc(-c4nc5c(-c6ccccc6F)nccc5[nH]4)c3c2)c1 | 61.9 |
| 30 | 13 | 915 | CCCCC(=O)Nc1cncc(-c2ccc3[nH]nc(-c4cc5c(-c6ccoc6)cncc5[nH]4)c3c2)c1 | 122 |
| 100 | 44 | 10.9 | Cc1ccc(-c2cncc3[nH]c(-c4n[nH]c5cnc(-c6cncc(N)c6)cc45)nc23)s1 | 162 |
| 10 | 25 | 638 | CN(C)c1cncc(-c2ccc3[nH]nc(-c4nc5c(-c6cccc(F)c6)cncc5[nH]4)c3n2)c1 | 154 |
| 100 | 15 | 70 | Cn1cc(-c2cc3c(-c4nc5c(-c6cccc(F)c6)cncc5[nH]4)n[nH]c3cn2)cn1 | 71 |
| 300 | 34 | 4750 | CN1CCN(c2cccc3[nH]c(-c4n[nH]c5ncc(-c6cncc(CN7CCCCC7)c6)cc45)cc23)CC1 | 23.6 |
| 10 | 45 | > 10000 | Cc1ccncc1-c1ccc2[nH]nc(-c3cc4c(-c5cccnc5)cncc4[nH]3)c2n1 | 149 |
|  | 59 | 745 | Nc1cncc(-c2cnc3[nH]nc(-c4cc5c(-c6ccccc6F)ccnc5[nH]4)c3c2)c1 | 27.6 |
| 100 | 46 | 473 | O=C(Nc1cncc(-c2cnc3[nH]nc(-c4cc5c(-c6cccs6)nccc5[nH]4)c3c2)c1)C1CCC1 | 82.2 |
| 30 | 2 | 40.7 | Cc1ccc(-c2cncc3[nH]c(-c4n[nH]c5ccc(-c6cncc(N)c6)nc45)nc23)s1 | 79.4 |
| 100 | 25 | 63 | CCCC(=O)Nc1cncc(-c2cnc3[nH]nc(-c4nc5c(-c6ccoc6)cccc5[nH]4)c3c2)c1 | 111 |
| 30 | 11 | 1000 | FC1(F)CCN(Cc2cncc(-c3cnc4[nH]nc(-c5cc6c(-c7ccoc7)cccc6[nH]5)c4c3)c2)C1 | 72.1 |
|  | 13 | 22.4 | Nc1cncc(-c2ccc3[nH]nc(-c4cc5c(-c6ccccn6)ccnc5[nH]4)c3c2)c1 | 46.1 |
| 100 | 33 | 13.2 | CCC(=O)Nc1cncc(-c2ccc3[nH]nc(-c4cc5c(-c6cccc(F)c6)ccnc5[nH]4)c3c2)c1 | 167 |
| 10 | 15 | > 10000 | Nc1cncc(-c2ccc3[nH]nc(-c4nc5c(-c6ccccc6F)ccnc5[nH]4)c3n2)c1 | 127 |
| 100 | 26 | 10 | Cn1cc(-c2cc3c(-c4nc5c(-c6cccc(F)c6)nccc5[nH]4)n[nH]c3cn2)cn1 | 110 |
|  | 13 | > 10000 | CC(C)CC(=O)Nc1cncc(-c2cc3c(-c4cc5cccnc5[nH]4)n[nH]c3cn2)c1 | 40.4 |
|  | 20 | > 10000 | CC(C)(C)C(=O)Nc1cncc(-c2ccc3[nH]nc(-c4cc5c(-c6ccncc6)ccnc5[nH]4)c3c2)c1 | 44.4 |
| 30 | 22 | 750 | FC1(F)CCN(Cc2cncc(-c3ccc4[nH]nc(-c5cc6c(N7CCCCC7)cccc6[nH]5)c4c3)c2)C1 | 160 |
| 30 | 58 | 30.4 | Cc1ccncc1-c1cc2c(-c3nc4c(-c5cc(F)cc(CNS(C)(=O)=O)c5)cccc4[nH]3)n[nH]c2cn1 | 81.8 |
| 10 | 3 | 3420 | CN1CCN(c2nccc3[nH]c(-c4n[nH]c5cnc(-c6cncc(NC(=O)C7CCCCC7)c6)cc45)cc23)CC1 | 60.8 |
| 30 | 23 | 711 | CC(C)CC(=O)Nc1cncc(-c2cnc3[nH]nc(-c4cc5c(-c6ccncc6)cccc5[nH]4)c3c2)c1 | 71.4 |
| 100 | 30 | 51 | O=C(Nc1cncc(-c2cnc3[nH]nc(-c4nc5c(-c6ccoc6)cncc5[nH]4)c3c2)c1)c1ccccc1 | 110 |
| 30 | 1 | 399 | CC(C)C(=O)Nc1cncc(-c2cc3c(-c4cc5cnccc5[nH]4)n[nH]c3cn2)c1 | 61.2 |

| EC50 [1] [nM] | EC50 [3] [nM] | EC50 [4] [nM] | SMILES | Emax at 0.1 µM [2] [%] |
| --- | --- | --- | --- | --- |
| 30 | 72 | 20.1 | c1cncc(-c2cc3c(-c4nc5ccccc5[nH]4)n[nH]c3cn2)c1 | 80.5 |
|  | 34 | 554 | CS(=O)(=O)NCc1cc(F)cc(-c2cncc3[nH]c(-c4n[nH]c5ccc(-c6cncc(NC(=O)C7CCC7)c6)cc45)cc23)c1 | 14.5 |
| 100 | 16 | 5 | CC(C)CC(=O)Nc1cncc(-c2ccc3[nH]nc(-c4nc5c(-c6cc(F)cc(CNS(C)(=O)=O)c6)cncc5[nH]4)c3c2)c1 | 118 |
|  | 6 | 260 | CC(C)C(=O)Nc1cncc(-c2ccc3[nH]nc(-c4cc5c(-c6cccnc6)cncc5[nH]4)c3c2)c1 | 34.5 |
| 10 | 28 | 354 | O=C(Nc1cncc(-c2ccc3[nH]nc(-c4nc5c(-c6ccc(Cl)s6)ccnc5[nH]4)c3n2)c1)C1CCC1 | 102 |
|  | 14 | 2300 | CCNCc1cncc(-c2cnc3[nH]nc(-c4cc5c(-c6ccccc6F)cncc5[nH]4)c3c2)c1 | 37.3 |
| 100 | 8 | 41 | CC(C)(C)C(=O)Nc1cncc(-c2ccc3[nH]nc(-c4nc5c(N6CCCCC6)cncc5[nH]4)c3c2)c1 | 114 |
|  | 10 | 3300 | c1cnc2[nH]c(-c3n[nH]c4ccc(-c5cncc(OCCN6CCCC6)c5)cc34)cc2c1 | 42.7 |
| 100 | 23 | 407 | CN(C)CCNc1cc(F)cc(-c2cccc3[nH]c(-c4n[nH]c5cnc(-c6cncc(N)c6)cc45)cc23)c1 | 180 |
|  | 10 | 5.1 | CC(C)C(=O)Nc1cncc(-c2ccc3[nH]nc(-c4nc5c(-c6cccnc6)cncc5[nH]4)c3c2)c1 | 34.4 |
|  | 86 | > 10000 | c1cncc(-c2cnc3[nH]nc(-c4nc5c(-c6cccnc6)cncc5[nH]4)c3c2)c1 | 62.9 |
|  | 22 | 5270 | CN1CCN(c2nccc3[nH]c(-c4n[nH]c5ccc(-c6cncc(NC(=O)C7CCCCC7)c6)cc45)cc23)CC1 | 37.8 |
|  | 10 | 57 | CN(C)Cc1cncc(-c2cnc3[nH]nc(-c4nc5c(-c6ccsc6)cncc5[nH]4)c3c2)c1 | 91.3 |
|  | 25 | 255 | CC(C)Nc1cncc(-c2ccc3[nH]nc(-c4cc5c(-c6cccnc6)ccnc5[nH]4)c3n2)c1 | 47.2 |
|  | 8 | > 10000 | Cc1cn(-c2cncc3[nH]c(-c4n[nH]c5ccc(-c6cncc(NC(=O)C7CCC7)c6)nc45)nc23)cn1 | 47.2 |
|  | 27 | 45 | CCC(=O)Nc1cncc(-c2ccc3[nH]nc(-c4cc5c(-c6cccc(F)c6)cncc5[nH]4)c3c2)c1 | 33.5 |
|  | 76 | 708 | FC1(F)CCN(Cc2cncc(-c3cnc4[nH]nc(-c5cc6c(-c7ccncc7)cccc6[nH]5)c4c3)c2)C1 | 29.2 |
|  | 11 | 1260 | O=C(Nc1cncc(-c2cnc3[nH]nc(-c4cc5cccnc5[nH]4)c3c2)c1)C1CCCCC1 | 28.5 |
|  | 22 | 244 | CCC(=O)Nc1cncc(-c2ccc3[nH]nc(-c4cc5c(-c6cc(F)cc(CNS(C)(=O)=O)c6)cncc5[nH]4)c3c2)c1 | 29.4 |
|  | 22 | 20 | FC1(F)CCN(Cc2cncc(-c3ccc4[nH]nc(-c5nc6c(N7CCCCC7)cncc6[nH]5)c4c3)c2)C1 | 80.1 |
|  | 33 | 1910 | c1ncc(-c2ccc3[nH]nc(-c4cc5c(-c6ccoc6)nccc5[nH]4)c3c2)cn1 | 40.2 |
|  | 21 | 670 | CC(C)Nc1cncc(-c2ccc3[nH]nc(-c4cc5c(-c6cccnc6)cncc5[nH]4)c3c2)c1 | 41.9 |
|  | 7 | > 10000 | CN1CCN(c2nccc3[nH]c(-c4n[nH]c5ncc(-c6cncc(NC(=O)C7CCCC7)c6)cc45)cc23)CC1 | 30.3 |
|  | 7 | 1540 | c1cc2[nH]c(-c3n[nH]c4ncc(-c5cncc(CN6CCCCC6)c5)cc34)cc2cn1 | 39.7 |
|  | 57 | 572 | Fc1cccc(-c2cncc3[nH]c(-c4n[nH]c5ncc(-c6cccnc6)cc45)cc23)c1 | 35.6 |
|  | 20 | 890 | CC(C)(C)CC(=O)Nc1cncc(-c2ccc3[nH]nc(-c4cc5c(-c6ccoc6)ccnc5[nH]4)c3c2)c1 | 21.2 |
